Laboratory results reported in publication PMC5940854, “Nitrothiophene carboxamides, a novel narrow spectrum antibacterial series: Mechanism of action and Efficacy” (Scientific Reports, 2018).
≈ marks a conversion by molar mass, not a printed value.

Legend:
E. coli ∆acrB JW0451-2 = experiment: Neutropenic thigh infection, E. coli ∆acrB; format: in vivo, BALB/c mice
[1] = tested on: Shigella flexneri clinical strain; experiment: MIC, Shigella flexneri; format: cell-based
Experimental: (§1) The inoculum used for all the experiments is derived from a single seed lot that is maintained as glycerol stocks at −80 °C and are sub cultured on LB plate for isolated colonies. Single colony of each strain is grown in M9 medium. All test compound stocks and dilutions are prepared in DMSO. Serial two-fold dilutions of compounds are prepared separately, with the concentrations ranging from 2 mg/mL to 0.015 mg/mL. To 150 µl (3–7 × 10^5 CFU/ml) of bacterial culture in 96 well microtitre plates, 3 μL compound from each of the dilutions is added to respective wells to obtain final concentrations ranging from 40 µg/mL to 0.3 µg/mL of the test compounds. Media control, culture control and appropriate reference drug controls are included. […] Growth is monitored by checking absorbance at 600 nm (A600). […] The samples from MIC and above concentrations are plated for MBC (Minimum Bactericidal Concentration). The samples are diluted 1:10 and plated on LB agar plates. […] The killing kinetics is determined by enumerating survivors at various time points following compound exposure. E. coli cells (~10^7 CFU/ml; A600 of 0.1) are treated with various concentrations (40 µg/mL to 0.3 µg/mL) of compounds in a 96-well microtitre plate. […] Data is expressed as the log10 CFU for each drug treatment.

[2] = tested on: E. coli mdtK knockout strain; experiment: MIC, efflux pump knockout mdtK; format: cell-based; conditions: Escherichia coli, read-out: MIC mdtK
Experimental: as §1

WT E. coli = experiment: MIC on WT E. coli in the presence of PAβN; format: cell-based; conditions: Escherichia coli
Experimental: as §1

[3] = tested on: E. coli bcr knockout strain; experiment: MIC, efflux pump knockout bcr; format: cell-based; conditions: Escherichia coli, read-out: MIC bcr
Experimental: as §1

[4] = tested on: E. coli yciM knockout strain; experiment: MIC, efflux pump knockout yciM; format: cell-based; conditions: Escherichia coli, read-out: MIC yciM
Experimental: as §1

[5] = tested on: E. coli mdtG knockout strain; experiment: MIC, efflux pump knockout mdtG; format: cell-based; conditions: Escherichia coli, read-out: MIC mdtG
Experimental: as §1

[6] = tested on: E. coli emrY knockout strain; experiment: MIC, efflux pump knockout emrY; format: cell-based; conditions: Escherichia coli, read-out: MIC emrY
Experimental: as §1

[7] = tested on: E. coli acrF knockout strain; experiment: MIC, efflux pump knockout acrF; format: cell-based; conditions: Escherichia coli, read-out: MIC acrF
Experimental: as §1

[8] = tested on: E. coli mdtB knockout strain; experiment: MIC, efflux pump knockout mdtB; format: cell-based; conditions: Escherichia coli, read-out: MIC mdtB
Experimental: as §1

[9] = tested on: E. coli hsrA knockout strain; experiment: MIC, efflux pump knockout hsrA; format: cell-based; conditions: Escherichia coli, read-out: MIC hsrA
Experimental: as §1

[10] = tested on: E. coli emrE knockout strain; experiment: MIC, efflux pump knockout emrE; format: cell-based; conditions: Escherichia coli, read-out: MIC emrE
Experimental: as §1

[11] = tested on: E. coli acrD knockout strain; experiment: MIC, efflux pump knockout acrD; format: cell-based; conditions: Escherichia coli, read-out: MIC acrD
Experimental: as §1

O=C(Nc1nc(-c2ccc(F)cc2)cs1)c1ccc([N+](=O)[O-])s1 [compound 15, N-(4-(4-Fluorophenyl)thiazol-2-yl)-5-nitrothiophene-2-carboxamide]
efficacy in thigh infection model (in words) (E. coli ∆acrB JW0451-2; E. coli ∆acrB JW0451-2): significantly bactericidal | Log10CFU Mean Diff. vs. Untreated Controls (E. coli ∆acrB JW0451-2; Study TI-2014-007, ∆acrB JW0451-2, 10mg/kg per oral): 0.2933 Log10CFU | Log10CFU Mean Diff. vs. Untreated Controls (E. coli ∆acrB JW0451-2; Study TI-2014-007, ∆acrB JW0451-2, 30mg/kg per oral): 1.943 Log10CFU | Log10CFU Mean Diff. vs. Untreated Controls (E. coli ∆acrB JW0451-2; Study TI-2014-007, ∆acrB JW0451-2, 100mg/kg per oral, 6 hours post treatment): 2.436 Log10CFU | Log10CFU Mean Diff. vs. Untreated Controls (E. coli ∆acrB JW0451-2; Study TI-2014-008, ∆acrB JW0451-2, 30mg/kg per oral): 1.497 Log10CFU | Log10CFU Mean Diff. vs. Untreated Controls (E. coli ∆acrB JW0451-2; Study TI-2014-008, ∆acrB JW0451-2, 100mg/kg per oral): 2.253 Log10CFU

O=C(Nc1nc(-c2ccc(F)cc2F)cs1)c1ccc([N+](=O)[O-])s1 [compound 12, N-(4-(2,4-difluorophenyl)thiazol-2-yl)-5-nitrothiophene-2-carboxamide]
MIC Shigella flexneri [1]: 10 µg/mL (≈ 27.2 µM)

Cc1sc(NC(=O)c2ccc([N+](=O)[O-])s2)nc1-c1ccccc1 [compound 7, N-(5-Methyl-4-phenylthiazol-2-yl)-5-nitrothiophene-2-carboxamide]
MIC [2]: > 40 µg/mL | MIC (WT E. coli): < 0.3 µg/mL | MIC [3]: > 40 µg/mL | MIC [4]: > 40 µg/mL | MIC [5]: > 40 µg/mL | MIC [6]: > 40 µg/mL | MIC [7]: > 40 µg/mL | MIC [8]: > 40 µg/mL | MIC [9]: > 40 µg/mL | MIC [10]: > 40 µg/mL | MIC [11]: > 40 µg/mL
